In US7112333B1, “T cell epitopes of ryegrass pollen allergen” (Heska Corporation, priority 1994, dated 2006):

Test system: Lol p V reactive T Cells
Experiment: T cell proliferation (tritiated thymidine) of Lol p V-primed T cell lines from grass-allergic patients
Type: cell-based, human
Excerpt: As discussed in Example 2, human T cell stimulating activity can be tested by culturing T cells obtained from an individual sensitive to Lol p V allergen, (i.e., an individual who has an IgE mediated immune response to Lol p V allergen) with a peptide derived from the allergen and determining whether proliferation of T cells occurs in response to the peptide as measured, e.g., by cellular uptake of tritiated thymidine. Stimulation indices for responses by T cells to peptides can be calculated as the maximum CPM in response to a peptide divided by the control CPM. A stimulation index (S.I.) equal to or greater than two times the background level is considered “positive”. Positive results are used to calculate the mean stimulation index for each peptide for the group of patients tested. In FIGS. 4 and 5 the mean T cell stimulation index is indicated above the bar. Preferred peptides of this invention comprise at least one T cell epitope and have a mean T cell stimulation index of greater than or equal to 2.0. […]
In addition, preferred peptides have a positivity index (P.I.) of at least about 60, more preferably about 100, more preferably at least about 200 and most preferably at least about 300. The positivity index for a peptide is determined by multiplying the mean T cell stimulation index by the percent of individuals, in a population of individuals sensitive to ryegrass pollen (e.g., preferably a population of at least 15 individuals, more preferably a population of at least 30 individuals or more), who have a T cell stimulation index to such peptide of at least 2.0. […]
In FIG. 5, the bar represents the cumulative rank of the peptide response in the group of patients tested as described in Example 2. To determine the cumulative rank, the 5 peptides with the highest S.I. in each individual were determined and assigned a numerical rank in descending order, with 5 representing the strongest response. […]
This amount of priming antigen was determined to be optimal for the activation of T cells from most grass-allergic patients. […]

## LPIX-5: synthetic overlapping peptide derived from Lol p V, sequence in FIG. 2 (GFKAAVAAAANAPPADKFKI; Lolium perenne)
Group of 19 patients tested, FIG. 4
  percent of positive responses (patients with S.I. of at least 2): 26.3%

## rFel d I (Chain I): recombinant Fel d I chain I, control antigen in T cell assay [reference compound]
One allergic patient, results not shown
  T cell proliferative response of one patient: not

## LPIX-20: synthetic overlapping peptide derived from Lol p V, sequence in FIG. 2 (AYETYKFIPSLEAAVKQAYA; Lolium perenne)
19 patients, 5 peptides with highest S.I. per individual ranked, ranks summed, FIG. 5
  ranked sum (cumulative rank of the peptide response): highest ranked sum
